The values that follow come from paper PMC9421656, “Beyond Retigabine: Design, Synthesis, and Pharmacological Characterization of a Potent and Chemically Stable Neuronal Kv7 Channel Activator with Anticonvulsant Activity” (Journal of Medicinal Chemistry, 2022).

The conditions of series [1]: literature value; cited from earlier work.
The next series deals with epileptic activity. More on the design: method as in PMID 25319542. As to conditions: cited from earlier work.
Series [2] addresses T1, Kv7.2/Kv7.3 channels (Homo sapiens, UniProt O43525+O43526). On the set-up: expressed in transfected cells. As to conditions: cited from earlier work.
Series [3] addresses T1, Kv7.2/Kv7.3 channels. Put plainly: FluxOR thallium-sensitive fluorescence-based assay in CHO cells stably expressing Kv7.2 + Kv7.3. The class given is cell-based. On the set-up: expressed in transfected cells. Here is the method:
While assay robustness in Kv7.2/Kv7.3-expressing cells was high (Z′ factor > 0.5),[27] the Z′ factor calculated in CHO cells expressing Kv7.2 subunits alone was <0.5; thus, all subsequent pharmacological screens were performed in Kv7.2/Kv7.3-expressing cells. […] The Kv7.2/Kv7.3-stable cell line was generated using a plasmid-based PiggyBac transposon system that enables genomic integration of multiple independent transposons containing distinct cDNA sequences. cDNAs for KCNQ2 and KCNQ3 genes (encoding for Kv7.2 and Kv7.3, respectively) were cloned into two different PiggyBac expression vectors (pB-CMV-MCS-EF1α-RedPuro, System Biosciences), and these two plasmids, together with a plasmid encoding for the transposase (System Biosciences), were transfected into CHO cells using Lipofectamine 2000 (Invitrogen) as indicated in the protocol provided by the seller company.
The selected clone stably expressing Kv7.2/Kv7.3 channels was grown in DMEM supplemented with 10% FBS, 50 U/mL Pen-Strep, 2 mM L-glutamine (all purchased from Gibco), and 4 μg/mL puromycin (Sigma) in a humidified atmosphere at 37 °C with 5% CO2. […] A kinetic dispense microplate reader (FLUOstar Optima) was used to read the plate, setting the excitation filter at 485 nm and the emission filter at 520 nm; “Stimulus buffer” prepared as indicated in the protocol was automatically added to wells after 5 s of recording; the plate was read every 1 s, for 50 s. The results were analyzed using Optima Data Analysis and Microsoft Excel.
Only experiments resulting in a Z′ > 0.5 were considered. Data shown (Figures 1D,E,F,G and 3B) were obtained from at least three independent experiments.
Data were analyzed using the GraphPad Prism 8.0.2 (GraphPad Software, LaJolla, CA). Statistically significant differences in the initial slope of the curves were evaluated through ordinary one-way ANOVA, and multiple comparisons were corrected with the Tukey test. […] Indicated EC50 values are the mean of at least three independent experiments ± standard error of the mean (SEM).

The target of series [4] is T1, Kv7.2/Kv7.3 channels. Put plainly: Whole-cell patch-clamp electrophysiology in CHO cells expressing Kv7.2/Kv7.3. In kind it is cell-based. More on the design: expressed in transfected cells; host or cells: CHO cells, transient transfection (pcDNA3.1, Lipofectamine 2000). As to conditions: for EC50: dose-response 0.01–30 μM. Here is the method:
Channel subunits were expressed in Chinese hamster ovary (CHO) cells by transient transfection, using plasmids containing cDNAs encoding human Kv7.2 and/or Kv7.3, all cloned in the pcDNA3.1 vector. According to the experimental protocol, these plasmids were expressed individually or in combination, together with a plasmid-expressing enhanced green fluorescent protein (Clontech, Palo Alto, CA) used as a transfection marker. Total cDNA in the transfection mixture was kept at 4 μg. CHO cells were grown in 100 mm plastic Petri dishes in Dulbecco’s modified Eagle’s medium containing 10% fetal bovine serum, nonessential amino acids (0.1 mM), penicillin (50 U/mL), and streptomycin ([…]) in a humidified atmosphere at 37 °C with 5% CO2.
Currents from CHO cells were recorded at room temperature (20–22 °C) using the whole-cell configuration of the patch-clamp technique, with glass micropipettes of 3–5 MΩ resistance. During the recording, constant perfusion of extracellular solution was maintained. […] The pipette (intracellular) solution contained (in mM): 140 KCl, 2 MgCl2, 10 EGTA, 10 HEPES, 5 Mg^2+-ATP, at pH 7.3–7.4, with KOH. […] To evaluate the activity of each compound on Kv7.2 + Kv7.3 currents, the cells were clamped at −80 mV and conductance–voltage curves (G/V curves; activation curves) were generated by normalizing to the maximal value of the instantaneous isopotential currents at 0 mV and expressing the normalized values as a function of the preceding voltages. Data were fit to a Boltzmann distribution of the following form: y = max/[1 + exp (V1/2 – V)/k], where V is the test potential, V1/2 is the half-activation potential, and k is the slope factor.
Indicated EC50 values are the mean of at least three independent experiments ± standard error of the mean (SEM).
Statistically significant differences in electrophysiological data were evaluated with the Student t test or with ANOVA followed by the Student–Newman–Keuls test when multiple groups were compared, with the threshold set at p < 0.05. […] Values are expressed as the […] mean ± standard error of the mean (SEM) of at least three cells recorded in at least three independent transfections.

Another series deals with Kv7.2. As to conditions: TEA blockade of Kv7.2; cited from earlier work.
For the next series, the system named is Kv7.2/Kv7.3 channel. As to conditions: TEA blockade of heteromeric Kv7.2/Kv7.3; cited from earlier work.
The target in another series is Kv7.2/Kv7.3 currents (Homo sapiens, UniProt O43525+O43526). As to conditions: 3 mM TEA. The protocol:
To ensure that both Kv7.2 and Kv7.3 subunits were expressed into the selected clone and formed heteromeric channels, pharmacological experiments with the Kv7 channel blocker tetraethylammonium (TEA) were performed.[64] […] The effect of TEA blockade on Kv7.2/Kv7.3 currents on the selected clone was compared to that of the blockade exerted on the control group, represented by CHO cells transiently transfected with Kv7.2/Kv7.3 channels. The effect of the TEA blockade was investigated using a ramp protocol in which Kv7.2/Kv7.3 currents were activated by 3 s voltage ramps from −80 to +20 mV.

Where two headings read alike, the source gives them in different places.

The term logP denotes a log measure of how a compound divides between an organic and an aqueous phase. Usually IC50 stands for the midpoint of a concentration-inhibition curve.

Sequence of Kv7.2/Kv7.3 currents (O43526 whole entry): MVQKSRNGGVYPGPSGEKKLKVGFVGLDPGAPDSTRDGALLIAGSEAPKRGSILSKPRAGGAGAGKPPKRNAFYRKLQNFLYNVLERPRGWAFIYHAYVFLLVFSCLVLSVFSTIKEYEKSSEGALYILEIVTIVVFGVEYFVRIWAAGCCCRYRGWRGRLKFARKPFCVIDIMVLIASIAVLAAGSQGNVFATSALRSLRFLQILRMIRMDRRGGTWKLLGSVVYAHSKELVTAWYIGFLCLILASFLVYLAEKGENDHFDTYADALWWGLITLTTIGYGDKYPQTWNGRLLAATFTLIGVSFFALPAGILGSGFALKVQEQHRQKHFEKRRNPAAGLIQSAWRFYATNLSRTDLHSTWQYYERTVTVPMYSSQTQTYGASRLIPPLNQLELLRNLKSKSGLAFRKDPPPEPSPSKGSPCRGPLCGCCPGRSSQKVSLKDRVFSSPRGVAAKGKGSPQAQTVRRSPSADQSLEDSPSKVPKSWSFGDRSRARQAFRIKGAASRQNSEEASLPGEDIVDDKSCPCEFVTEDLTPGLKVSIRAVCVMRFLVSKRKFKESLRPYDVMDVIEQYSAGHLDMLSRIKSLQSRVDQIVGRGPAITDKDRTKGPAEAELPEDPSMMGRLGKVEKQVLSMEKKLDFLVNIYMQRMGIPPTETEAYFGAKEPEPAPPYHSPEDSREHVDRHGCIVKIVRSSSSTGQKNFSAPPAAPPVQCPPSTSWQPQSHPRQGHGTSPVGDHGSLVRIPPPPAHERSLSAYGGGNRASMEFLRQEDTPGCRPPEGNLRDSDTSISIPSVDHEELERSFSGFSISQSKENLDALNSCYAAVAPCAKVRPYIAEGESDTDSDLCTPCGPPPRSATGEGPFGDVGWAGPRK
Sequence of Kv7.2/Kv7.3 currents (O43525 whole entry): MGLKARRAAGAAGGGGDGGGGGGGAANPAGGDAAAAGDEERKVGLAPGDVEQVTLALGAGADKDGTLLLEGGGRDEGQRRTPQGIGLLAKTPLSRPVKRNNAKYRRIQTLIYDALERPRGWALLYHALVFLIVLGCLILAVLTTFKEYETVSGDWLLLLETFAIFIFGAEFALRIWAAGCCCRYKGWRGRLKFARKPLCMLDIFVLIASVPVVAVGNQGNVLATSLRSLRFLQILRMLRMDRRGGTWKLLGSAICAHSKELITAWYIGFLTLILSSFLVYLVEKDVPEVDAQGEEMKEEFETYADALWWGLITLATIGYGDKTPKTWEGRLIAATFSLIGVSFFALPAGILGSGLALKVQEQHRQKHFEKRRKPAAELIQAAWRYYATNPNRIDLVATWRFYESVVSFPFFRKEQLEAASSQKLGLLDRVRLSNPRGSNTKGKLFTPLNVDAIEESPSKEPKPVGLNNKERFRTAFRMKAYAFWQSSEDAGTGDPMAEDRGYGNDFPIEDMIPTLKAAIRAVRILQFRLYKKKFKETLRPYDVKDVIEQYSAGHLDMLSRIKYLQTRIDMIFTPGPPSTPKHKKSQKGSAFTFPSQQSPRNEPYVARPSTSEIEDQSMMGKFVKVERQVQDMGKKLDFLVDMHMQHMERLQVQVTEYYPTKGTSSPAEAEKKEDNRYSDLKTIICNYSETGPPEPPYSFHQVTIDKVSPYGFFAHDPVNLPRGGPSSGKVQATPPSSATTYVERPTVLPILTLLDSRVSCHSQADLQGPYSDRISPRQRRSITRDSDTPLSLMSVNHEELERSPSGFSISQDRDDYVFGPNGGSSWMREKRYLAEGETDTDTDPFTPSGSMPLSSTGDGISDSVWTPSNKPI

For the compound `C#CCN(Cc1ccc(F)cc1)c1ccc(NC(=O)OCC)c(N)c1` [P-RET, N-propargyl retigabine], in series [1], the “Increase in brain/plasma ratio compared to retigabine” value is given as 14 fold. The “In vivo potency higher than retigabine (suppression of epileptic activity)” value with epileptic activity is reported as 2.5 times. This compound had a logP in “Lipophilicity (log P)” of 3.48.
Consider `CCOC(=O)Nc1ccc(NCc2ccc(C(F)(F)F)cc2)c(F)c1N` [RL-81], for which the “Potency relative to retigabine as a Kv7 activator in vitro” value at Kv7.2/Kv7.3 channels [2] is more than 15 times. The “Slope of the fluorescent signal at 10 μM” value on Kv7.2/Kv7.3 channels [3] (10 μM, initial slope of FluxOR signal between 5 and 15 s, mean ± SEM) was found to be 0.0272±0.0014. Also, the EC50 was found to be 4 ± 1 µM at Kv7.2/Kv7.3 channels [3] (FluxOR dose-response, slope parameter, read-out: EC50 (initial slope of the fluorescence signal)); 0.27 ± 0.04 µM at Kv7.2/Kv7.3 channels [4] (current at +20 mV, read-out: Maximal currents EC50); 0.24 ± 0.06 µM on Kv7.2/Kv7.3 channels [4] (read-out: ΔV1/2 EC50). In addition, on Kv7.2/Kv7.3 channels [4] (1 μM), the “Leftward shift in V1/2 (ΔV1/2)” value is “about 40 mV”. Moreover, at Kv7.2/Kv7.3 channels [4] (calculated at +20 mV), the “Idrug/Icontrol (maximal current density)” value is 1.6 ± 0.2. Besides, the “Potency over retigabine as Kv7.2/Kv7.3 activator (fold/times)” value on Kv7.2/Kv7.3 channels [4] (from ΔV1/2 EC50) was determined as 10.
Take `CC[N+](CC)(CC)CC` [TEA, tetraethylammonium]: the IC50 was 300 µM with Kv7.2 and 3000 µM with Kv7.2/Kv7.3 channel. The Current inhibition entry is on record as “about 55%” at Kv7.2/Kv7.3 currents (CHO cells transiently transfected with Kv7.2/Kv7.3 (control group)) and “about 35%” at Kv7.2/Kv7.3 currents (selected stable clone (clone 5)).
